Data from the NIST ThermoML archive (doi:10.1016/j.fluid.2014.04.028).
Numbers after ± are expanded uncertainties.

Assays:
[1] = Molar enthalpy of transition or fusion; details: Crystal; DSC
[2] = molar heat capacity at constant pressure; details: 101.33 kPa, Small sample (50 mg) DSC
[3] = Crystal; DTA

Cc1nc2n(c(=O)c1CCN1CCC(c3noc4cc(F)ccc34)CC1)CCCC2 [risperidone]
Details	Molar enthalpy of transition or fusion [kJ/mol]	Normal melting temperature [°C]
[1]	43.9 ± 0.93	–
[3]	–	169.23 ± 0.63

[2]
Details	molar heat capacity at constant pressure [J/K/mol]
270.1 K, Crystal	471 ± 12
275 K, Crystal	476 ± 13
280.1 K, Crystal	480 ± 12
284.9 K, Crystal	483 ± 12
290.1 K, Crystal	489 ± 12
294.9 K, Crystal	495 ± 12
300.1 K, Crystal	502 ± 12
304.9 K, Crystal	509 ± 12
310.1 K, Crystal	516 ± 12
314.9 K, Crystal	523 ± 12
320.1 K, Crystal	530 ± 12
324.9 K, Crystal	537 ± 12
330.1 K, Crystal	544 ± 12
334.9 K, Crystal	551 ± 13
340 K, Crystal	558 ± 13
345.1 K, Crystal	564 ± 13
350 K, Crystal	571 ± 13
355.1 K, Crystal	578 ± 13
359.9 K, Crystal	583 ± 13
365 K, Crystal	590 ± 13
370.1 K, Crystal	597 ± 13
375 K, Crystal	602 ± 13
380.1 K, Crystal	609 ± 13
384.9 K, Crystal	615 ± 14
390 K, Crystal	621 ± 14
394.9 K, Crystal	627 ± 14
400 K, Crystal	634 ± 14
405.1 K, Crystal	641 ± 14
409.9 K, Crystal	647 ± 14
430.1 K, Liquid	839 ± 14
434.9 K, Liquid	842 ± 14
440 K, Liquid	845 ± 14
445.1 K, Liquid	850 ± 14
449.9 K, Liquid	854 ± 14
453 K, Liquid	856 ± 14
